Our source for the IC50 values is patent US20060270666A1, “Quinoxaline derivatives as neutrophil elastase inhibitors and their use” (priority 2003, published 2006).

The experiment has as its target T1, Human Neutrophil Elastase (HNE) (Homo sapiens, UniProt P08246).
T1 construct: Human Neutrophil Elastase (HNE) purified from serum (Calbiochem art. 324681); purchased Calbiochem 324681; host or cells: natural human material (serum)
T1 sequence (P08246 30-267): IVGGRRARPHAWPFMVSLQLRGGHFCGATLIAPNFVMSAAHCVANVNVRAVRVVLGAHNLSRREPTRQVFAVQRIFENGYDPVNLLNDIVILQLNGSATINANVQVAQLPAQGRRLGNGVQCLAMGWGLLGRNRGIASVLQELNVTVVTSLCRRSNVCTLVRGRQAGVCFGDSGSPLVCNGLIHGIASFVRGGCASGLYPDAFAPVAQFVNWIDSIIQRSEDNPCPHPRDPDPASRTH
Kind of experiment: Human Neutrophil Elastase Quenched-FRET Assay. In kind it is biochemical. Particulars: HNE purified from serum; substrate MeOSuc-AAPV-AMC; 15 min pre-incubation, 30 min incubation at room temperature; read-out: Inhibition of Human Neutrophil Elastase IC50. As for the experimental part: Human Neutrophil Elastase Quenched-FRET Assay
The assay uses Human Neutrophil Elastase (HNE) purified from serum (Calbiochem art. 324681; Ref. Baugh, R. J. et al., 1976, Biochemistry. 15, 836-841). HNE was stored in 50 mM NaOAc, 200 mM NaCl, pH 5.5 with added 30% glycerol at −20° C. The protease substrate used was Elastase Substrate V Fluorogenic, MeOSuc-AAPV-AMC (Calbiochem art. 324740; Ref. Castillo, M. J. et al., 1979, Anal. Biochem. 99, 53-64). The substrate was stored in DMSO at −20° C. The assay additions were as follows: Test compounds and controls were added to black 96-well flat-bottom plates (Greiner 655076), 1 μL in 100% DMSO, followed by 30 μL HNE in assay buffer with 0.01% TritonX-100. The assay buffer constitution was: 100 mM Tris (pH 7.5) and 500 mM NaCl. The enzyme and the compounds were incubated at room temperature for 15 minutes. Then 30 μl substrate in assay buffer was added. The assay was stopped after 30 minutes incubation at room temperature by adding 60 μl stop solution (140 mM acetic acid, 200 mM sodium monochloroacetate, 60 mM sodium acetate, pH 4.3). Fluorescence was measured on a Wallac 1420 Victor 2 instrument at settings: Excitation 380 nm, Emission 460 nm. IC50 values were determined using Xlfit curve fitting using model 205.
For `N#CC1CCC(CNC(=O)c2nc3ccccc3n(-c3cccc(C(F)(F)F)c3)c2=O)CC1` (stereo not drawn) [Example 2.10, N-[(4-Cyanocyclohexyl)methyl]-3-oxo-4-[3-(trifluoromethyl)phenyl]-3,4-dihydroquinoxaline-2-carboxamide], the IC50 (as a rule, the point on the concentration scale where inhibition reaches its midpoint) was 248 nM.

As for `O=C(NCCc1ccc(F)cc1)c1nc2ccccc2n(-c2cccc(C(F)(F)F)c2)c1=O` [Example 2.20, N-[2-(4-Fluorophenyl)ethyl]-3-oxo-4-[3-(trifluoromethyl)phenyl]-3,4-dihydroquinoxaline-2-carboxamide], the IC50 was found to be 573 nM.

Regarding `Cc1ccc(CNC(=O)c2nc3ccccc3n(-c3cccc(C(F)(F)F)c3)c2=O)cc1` [Example 2.12, N-(4-Methylbenzyl)-3-oxo-4-[3-(trifluoromethyl)phenyl]-3,4-dihydroquinoxaline-2-carboxamide], the IC50 came to 226 nM.
